Patent publication US10064901B2, “Compositions and methods” (priority 2013, dated 2018)
Values after ≈ are worked out from the molar mass of the structure shown. Like-named read-outs stand apart in the source and are kept apart here.

Legend:
[1] = format: in vivo, human
ethanol treated spores = format: cell-based; settings: lysozyme addition to the plates (2 ug/ml); Sweet B or M2GSC media (FIG. 14)
M. morganii isolates = experiment: microbe, parasite or virus in culture; format: cell-based; settings: Morganella morganii
P. pennerii isolates = experiment: organism not typed; format: cell-based, Proteus pennerii
[2] = 10 patients with recurrent C. difficile treated with ethanol treated spore preparations

In the case of Clostridium_symbiosum, the “% of Patients OTU Engrafts” value [1, 2] is reported as 50%.
For Bacteroides_fragilis, the “% of Patients OTU Engrafts” value [1, 2] was 30%.
For Clostridium_butyricum, the “% of Patients OTU Engrafts” value ([1]; human, in vivo) was 20%.
For Clostridium_mayombei, the “% of Patients OTU Engrafts” value [1, 2] was 50%.
With lysozyme the effect on germination (ethanol treated spores) was “small effect”.
With Clostridium_clostridioforme the “% of Patients OTU Engrafts” value [1, 2] was 60%.
For `C[C@@H](O)[C@H]1C(=O)N2C(C(=O)O)=C(SCCN=CN)C[C@H]12` [imipenem], the MIC (M. morganii isolates) was 2 to 4 µg/mL (≈ 6.68 to 13.4 µM) and the MIC (P. pennerii isolates) was 4 to 8 µg/mL (≈ 13.4 to 26.7 µM).
For Clostridium_bartlettii, the “% of Patients OTU Engrafts” value [1, 2] was 70%.
With Clostridium_disporicum the “% of Patients OTU Engrafts” value [1, 2] was 30%.
